{"source": "ChEMBL document CHEMBL4715914", "about": "“Chemical validation of a druggable site on Hsp27/HSPB1 using in silico solvent mapping and biophysical methods” (Bioorg Med Chem, 2021)", "key": {"[1]": {"target": "Heat shock protein beta-1 (Homo sapiens, UniProt P04792)", "sequence (P04792 whole entry, the tested form may be a part)": "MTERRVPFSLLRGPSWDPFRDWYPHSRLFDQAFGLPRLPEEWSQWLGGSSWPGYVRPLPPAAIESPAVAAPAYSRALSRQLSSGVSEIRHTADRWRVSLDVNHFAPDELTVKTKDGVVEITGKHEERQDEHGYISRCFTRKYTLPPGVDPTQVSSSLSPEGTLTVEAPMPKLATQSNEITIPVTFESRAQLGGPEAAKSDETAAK", "assay": "Binding affinity to HSP27 (79 to 176 residues) (unknown origin) expressed in Escherichia coli BL21 (DE3) cells by HSQC NMR analysis", "conditions": "for Kd: read-out: Kd(app)"}, "[2]": {"assay": "Binding affinity to HSP27 V23A mutant (79 to 176 residues) (unknown origin) expressed in Escherichia coli BL21 (DE3) cells by HSQC NMR analysis", "design": "species or system Homo sapiens", "conditions": "read-out: Kd(app)"}, "[3]": {"assay": "Binding affinity to HSP27 T61L mutant (79 to 176 residues) (unknown origin) expressed in Escherichia coli BL21 (DE3) cells by HSQC NMR analysis", "design": "species or system Homo sapiens", "conditions": "read-out: Kd(app)"}, "[4]": {"assay": "Binding affinity to HSP27 H46A mutant (79 to 176 residues) (unknown origin) expressed in Escherichia coli BL21 (DE3) cells by HSQC NMR analysis", "design": "species or system Homo sapiens", "conditions": "read-out: Kd(app)"}, "[5]": {"assay": "Binding affinity to HSP27 L21A mutant (79 to 176 residues) (unknown origin) expressed in Escherichia coli BL21 (DE3) cells by HSQC NMR analysis", "design": "species or system Homo sapiens", "conditions": "read-out: Kd(app)"}, "[6]": {"assay": "Binding affinity to HSP27 C59A mutant (79 to 176 residues) (unknown origin) expressed in Escherichia coli BL21 (DE3) cells by HSQC NMR analysis", "design": "species or system Homo sapiens", "conditions": "read-out: Kd(app)"}, "[7]": {"assay": "Binding affinity to HSP27 I56A mutant (79 to 176 residues) (unknown origin) expressed in Escherichia coli BL21 (DE3) cells by HSQC NMR analysis", "design": "species or system Homo sapiens", "conditions": "read-out: Kd(app)"}}, "note": "Active and inactive are the calls of the source. The rule behind the calls is not given here.", "data": [{"smiles": "Nc1cccnc1Oc1ccc(F)cc1F", "values": [{"measurement": "Kd", "setting": "[1]", "result": "> 1000", "unit": "µM"}]}, {"smiles": "O=[N+]([O-])c1cc(Oc2ccc(F)cc2F)ccc1Oc1ccc(F)cc1F", "values": [{"measurement": "Kd(app)", "setting": "[1]", "result": "inactive"}]}, {"smiles": "O=[N+]([O-])c1ccc(Oc2ccc(F)cc2F)c([N+](=O)[O-])c1", "values": [{"measurement": "Kd", "setting": "[2]", "result": 69, "unit": "µM"}, {"measurement": "Kd", "setting": "[3]", "result": 32, "unit": "µM"}, {"measurement": "Kd", "setting": "[4]", "result": 240, "unit": "µM"}, {"measurement": "Kd", "setting": "[5]", "result": 42, "unit": "µM"}, {"measurement": "Kd", "setting": "[6]", "result": 67, "unit": "µM"}, {"measurement": "Kd", "setting": "[7]", "result": 63, "unit": "µM"}]}, {"smiles": "O=C(Oc1ccc(F)cc1F)c1ccc([N+](=O)[O-])cc1", "values": [{"measurement": "Kd(app)", "setting": "[1]", "result": "inactive"}]}, {"smiles": "O=[N+]([O-])c1cccnc1Oc1ccc(I)cc1", "values": [{"measurement": "Kd(app)", "setting": "[1]", "result": "inactive"}]}, {"smiles": "O=[N+]([O-])c1cccnc1Oc1ccc(F)cc1F", "values": [{"measurement": "Kd", "setting": "[1]", "result": 177, "unit": "µM"}]}]}
